Assay results: patent US20240174639A1, “PYRIDINE DERIVATIVES USEFUL AS HCN2 MODULATORS” (King's College London, priority 2021, published 2024)
Counter-ions that a name gives are not always drawn.

Key:
HCN2 = target: T1, HCN2 (Homo sapiens, UniProt Q9UL51); test: HCN2 assay using PatchXpress 7000A (Example 50A); type: cell-based; conditions: PatchXpress protocol (PX)
T1 sequence (Q9UL51 1-889): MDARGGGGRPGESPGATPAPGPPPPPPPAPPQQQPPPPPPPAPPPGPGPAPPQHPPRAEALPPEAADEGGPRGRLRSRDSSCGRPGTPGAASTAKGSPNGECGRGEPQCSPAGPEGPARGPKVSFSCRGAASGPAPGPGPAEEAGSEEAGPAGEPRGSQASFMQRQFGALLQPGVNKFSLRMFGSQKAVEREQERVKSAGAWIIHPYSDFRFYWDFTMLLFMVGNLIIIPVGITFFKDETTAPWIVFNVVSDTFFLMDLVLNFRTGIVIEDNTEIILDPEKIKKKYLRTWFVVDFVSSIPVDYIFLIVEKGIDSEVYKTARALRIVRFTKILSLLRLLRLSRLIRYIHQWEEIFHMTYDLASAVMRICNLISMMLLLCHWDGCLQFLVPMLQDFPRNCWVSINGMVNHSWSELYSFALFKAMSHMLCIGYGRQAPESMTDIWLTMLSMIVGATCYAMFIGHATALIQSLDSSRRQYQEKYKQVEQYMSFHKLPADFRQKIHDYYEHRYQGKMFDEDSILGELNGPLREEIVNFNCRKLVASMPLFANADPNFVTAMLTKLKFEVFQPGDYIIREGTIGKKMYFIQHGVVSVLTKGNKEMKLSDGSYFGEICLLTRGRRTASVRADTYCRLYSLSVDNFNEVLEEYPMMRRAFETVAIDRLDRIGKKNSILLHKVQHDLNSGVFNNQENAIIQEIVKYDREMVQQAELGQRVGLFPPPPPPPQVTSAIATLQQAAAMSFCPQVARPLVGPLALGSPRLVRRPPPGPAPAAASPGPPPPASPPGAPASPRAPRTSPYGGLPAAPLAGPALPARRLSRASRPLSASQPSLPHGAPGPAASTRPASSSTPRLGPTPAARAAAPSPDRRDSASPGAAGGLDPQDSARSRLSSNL
Excerpt: (§1) Solutions for recording HON currents were:
For HCN1 and HCN2, the pulse protocol involved stepping from a holding potential of −30 mV to −110 mV (see FIG. 1A) for 2 seconds to evoke the current. The membrane voltage was then stepped back to −30 mV for a further 8 seconds. This sequence was evoked repeatedly every 10 seconds throughout the experiment, starting prior to drug (Control A) and during cumulative additions of 5 increasing compound concentrations, then finally a 100% inhibiting concentration of cesium chloride (CsCl, 3 mM).
(§2) The peak inward current measured at the end of the pulse to −110 mV (HCN1 and HCN2) or −130 mV (HCN4) was measured and any leak current subtracted to calculate the HCN current. The HCN current amplitude was measured after each control or compound addition and normalized to the control amplitude (Control A).
(§3) All experiments were performed at room temperature (approximately 22° C.).
(§4) Each test compound concentration was applied to the cell for seven (7) minutes, at which point the next cumulative concentration was applied. 3 mM CsCl was applied to each cell for 2 minutes at the end of each experiment (Control B) to determine 100% inhibition level of the HCN current.

HCN4 = target: T2, HCN4 (Homo sapiens, UniProt Q9Y3Q4); test: HCN4 assay using PatchXpress 7000A (Example 50A); type: cell-based; conditions: PatchXpress protocol (PX)
T2 sequence (Q9Y3Q4 1-1203): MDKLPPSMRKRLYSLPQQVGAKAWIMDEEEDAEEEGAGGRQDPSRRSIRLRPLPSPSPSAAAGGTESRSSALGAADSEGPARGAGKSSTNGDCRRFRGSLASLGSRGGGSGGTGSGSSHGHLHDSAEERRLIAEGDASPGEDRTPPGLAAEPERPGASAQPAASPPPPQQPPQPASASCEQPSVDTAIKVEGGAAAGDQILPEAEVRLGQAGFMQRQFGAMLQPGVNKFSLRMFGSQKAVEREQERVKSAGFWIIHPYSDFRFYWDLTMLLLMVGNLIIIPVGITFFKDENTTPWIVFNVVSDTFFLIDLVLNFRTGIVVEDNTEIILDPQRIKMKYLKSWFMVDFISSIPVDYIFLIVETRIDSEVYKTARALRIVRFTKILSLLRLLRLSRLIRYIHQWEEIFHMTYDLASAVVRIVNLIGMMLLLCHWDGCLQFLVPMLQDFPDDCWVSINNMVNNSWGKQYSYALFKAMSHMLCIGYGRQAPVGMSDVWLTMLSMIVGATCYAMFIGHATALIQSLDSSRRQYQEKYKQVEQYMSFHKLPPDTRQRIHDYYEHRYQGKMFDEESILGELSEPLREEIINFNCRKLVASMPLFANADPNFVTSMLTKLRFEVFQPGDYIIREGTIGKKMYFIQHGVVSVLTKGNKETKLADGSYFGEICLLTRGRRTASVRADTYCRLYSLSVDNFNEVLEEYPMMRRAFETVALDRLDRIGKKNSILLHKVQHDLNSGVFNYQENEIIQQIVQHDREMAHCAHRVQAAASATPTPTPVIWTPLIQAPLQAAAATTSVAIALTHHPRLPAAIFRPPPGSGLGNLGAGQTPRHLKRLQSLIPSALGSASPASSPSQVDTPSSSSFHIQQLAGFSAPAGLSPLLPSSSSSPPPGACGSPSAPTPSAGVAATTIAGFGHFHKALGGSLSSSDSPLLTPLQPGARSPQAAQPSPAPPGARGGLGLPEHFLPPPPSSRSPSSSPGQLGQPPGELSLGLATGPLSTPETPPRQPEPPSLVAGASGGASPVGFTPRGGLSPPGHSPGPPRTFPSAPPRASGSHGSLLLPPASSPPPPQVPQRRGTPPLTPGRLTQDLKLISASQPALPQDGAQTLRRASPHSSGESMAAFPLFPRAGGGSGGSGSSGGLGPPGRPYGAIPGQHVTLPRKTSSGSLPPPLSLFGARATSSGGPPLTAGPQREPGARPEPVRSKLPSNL
Experimental: as §1
For HCN4, the pulse protocol involved stepping from a holding potential of −30 mV to −130 mV (see FIG. 1B) for 4 seconds to evoke the current.
as §2, §3, §4

SMILES	IC50 (HCN2) [µM]	IC50 (HCN4) [µM]
N[C@@H](Cc1ccccn1)c1ccccc1-n1ncc2cc(Br)ccc21 [Example 1, (S)-1-[2-(5-Bromo-1H-indazol-1-yl)phenyl]-2-(pyridine-2-yl)ethane-1-amine hydrochloride]	0.9	3.4
Cc1cccnc1C[C@H](N)c1ncccc1-n1ncc2ccccc21 [Example 16, (S)-1-[3-(1H-indazole-1-yl)pyridine-2-yl]-2-(3-methylpyridine-2-yl)ethan-1-amine hydrochloride]	0.13	2.1
N#Cc1cccc(C[C@H](N)c2ncccc2-n2ncc3ccccc32)n1 [Example 6, (S)-6-{2-[3-(1H-ind-azol-1-yl)pyridine-2-yl]-2-aminoethyl}pyridine-2-carbonitrile hydro-chloride]	1.1	22.2
N[C@@H](Cc1cccc(OCCO)n1)c1ncccc1-n1ncc2ccccc21 [Example 13, (S)-2-[(6-{2-[3-(1H-Indazol-1-yl)pyridine-2-yl]-2-aminoethyl}-pyridine-2-yl)oxy]-ethan-1-ol hydro-chloride]	> 10	
N[C@@H](Cc1cccc(-c2cn[nH]c2)n1)c1ncccc1-n1ncc2ccccc21 [Example 12, (S)-1-[3-(1H-indazole-1-yl)pyridine-2-yl]-2-[6-(1H-pyrazol-4-yl)-pyridine-2-yl)ethan-1-amine hydrochloride]	> 10	
NC(=O)c1ccc(F)c(C[C@H](N)c2ncccc2-n2ncc3ccccc32)n1 [Example 19, (S)-6-{2-[3-(1H-ind-azol-1-yl)pyridine-2-yl]-2-aminoethyl}-5-fluoropyridine-2-carboxamide hydro-chloride]	6.9	
Cc1nc(C[C@H](N)c2ncccc2-n2ncc3ccccc32)ccc1F [Example 20, (S)-1-[3-(1H-indazole-1-yl)pyridine-2-yl]-2-(5-fluoro-6-methyl-pyridine-2-yl)ethan-1-amine hydrochloride]	0.9	13
Cc1ccc(F)c(C[C@H](N)c2ncccc2-n2ncc3ccccc32)n1 [Example 11, (S)-1-[3-(1H-indazole-1-yl)pyridine-2-yl]-2-(3-fluoro-6-methyl-pyridine-2-yl)ethan-1-amine hydrochloride]	0.16	
CN(C)C(=O)c1cccc(C[C@H](N)c2ncccc2-n2ncc3ccccc32)n1 [Example 8, (S)-6-{2-[3-(1H-ind-azol-1-yl)pyridine-2-yl]-2-aminoethyl}-N,N-dimethylpyridine-2-carboxamide hydro-chloride]	28.1	> 30
N[C@@H](Cc1cccc(CCO)n1)c1ncccc1-n1ncc2ccccc21 [Example 14, (S)-2-(6-{2-[3-(1H-Indazol-1-yl)pyridine-2-yl]-2-aminoethyl}-pyridine-2-yl)ethan-1-ol hydrochloride]	3.7	
N[C@@H](Cc1ccc(F)cn1)c1ncccc1-n1ncc2ccccc21 [Example 18, (S)-1-[3-(1H-indazole-1-yl)pyridine-2-yl]-2-(5-fluoropyridine-2-yl)-ethan-1-amine hydro-chloride]	0.5	11.7
N#Cc1ccc2c(cnn2-c2ccccc2[C@@H](N)Cc2ccccn2)c1 [Example 3, (S)-1-{2-[1-Amino-2-(pyridine-2-yl)ethyl]-phenyl}-1H-indazole-5-carbonitrile hydro-chloride]	3.5	> 30
CCc1cccc(C[C@H](N)c2ncccc2-n2ncc3ccccc32)n1 [Example 15, (S)-1-[3-(1H-indazole-1-yl)pyridine-2-yl]-2-(6-ethylpyridine-2-yl)-ethan-1-amine hydro-chloride]	2.1	14.8
N[C@@H](Cc1cccc(F)n1)c1ncccc1-n1ncc2ccccc21 [Example 17, (S)-1-[3-(1H-indazole-1-yl)pyridine-2-yl]-2-(6-fluoropyridine-2-yl)ethan-1-amine hydrochloride]	3.3	14.7

Continued, values first:

IC50 (HCN2) [µM]	IC50 (HCN4) [µM]	SMILES
0.015	0.5	Cc1cc(F)cnc1C[C@H](N)c1ncccc1-n1ncc2ccccc21 [Example 26, (S)-1-[3-(1H-indazole-1-yl)pyridine-2-yl]-2-(5-fluoro-3-methyl-pyridine-2-yl)ethan-1-amine hydrochloride]
0.32	13.4	N#Cc1nc(C[C@H](N)c2ncccc2-n2ncc3ccccc32)ccc1F [Example 22, (S)-6-{2-[3-(1H-ind-azol-1-yl)pyridine-2-yl]-2-aminoethyl}-3-fluoropyridine-2-carbonitrile hydro-chloride]
> 10		NC(=O)c1nc(C[C@H](N)c2ncccc2-n2ncc3ccccc32)ccc1F [Example 27, (S)-6-{2-[3-(1H-ind-azol-1-yl)pyridine-2-yl]-2-aminoethyl}-3-fluoropyridine-2-carboxamide hydro-chloride]
1.1	≥ 30	CS(=O)(=O)c1ccc(F)c(C[C@H](N)c2ncccc2-n2ncc3ccccc32)n1 [Example 21, (S)-1-[3-(1H-indazole-1-yl)pyridine-2-yl]-2-(3-fluoro-6-methyl-sulfonylpyridine-2-yl)-ethan-1-amine formate]
2.6		CN(C)C(=O)c1ccc(F)c(C[C@H](N)c2ncccc2-n2ncc3ccccc32)n1 [Example 29, (S)-6-{2-[3-(1H-ind-azol-1-yl)pyridine-2-yl]-2-aminoethyl}-5-fluoro-N,N-dimethylpyridine-2-carboxamide hydro-chloride]
	19.2	N[C@@H](Cc1nc(CCO)ccc1F)c1ncccc1-n1ncc2ccccc21 [Example 24, (S)-2-(6-{2-[3-(1H-Indazol-1-yl)pyridine-2-yl]-2-aminoethyl}-5-fluoropyridine-2-yl)-ethan-1-ol hydrochloride]
~10		CS(=O)(=O)c1cccc(C[C@H](N)c2ncccc2-n2ncc3ccccc32)n1 [Example 49, (S)-1-[3-(1H-indazole-1-yl)pyridine-2-yl]-2-(6-methylsulfonyl-pyridine-2-yl)ethan-1-amine hydrochloride]
